This assay concerns HepG2 + statin, PCSK9 mRNA qPCR, 24 h. Kind of assay: statin-induced PCSK9 expression modulation – cell-based, HepG2, RT-PCR, atorvastatin or simvastatin, cherry-pick, mechanism study for Trib1 inducer project, late-stage follow-up (AID 1053153).

Turning to `CN1C(=O)c2cc(NC(=O)c3ccc(C(F)(F)F)cc3)ccc2OC[C@@H]2O[C@H](CC(=O)NC3Cc4ccccc4C3)CC[C@@H]21`, the fold change is 2. The value for `CN1C(=O)c2cc(NC(=O)c3ccc(C(F)(F)F)cc3)ccc2OC[C@@H]2O[C@@H](CC(=O)NC3Cc4ccccc4C3)CC[C@@H]21` was 10.

For the origin of these results see PubChem BioAssay AID1053153 (Broad Institute, 2014).
